{"source": "patent US20120172650A1", "about": "“USE OF SO[…] AN ANALOGUE THEREOF IN COMBINATION WITH EXTERNAL RADIATION THERAPY” (priority 2009, published 2012)", "key": {"[1]": {"test_system": "GH3 xenograft tumors", "experiment": "Mouse GH3 xenograft tumor model, tumor growth delay", "type": "in vivo, nude mice", "method": "Male nude mice, 8 weeks old and 20-25 grams in body weight, were used in this study (Charles River Laboratories, Hollister, Calif.). Prior to experimentation the mice were tested and found to be negative for specific pathogens. The mice were maintained under specific-pathogen-free conditions and allowed to breed. Sterilized food and water were available ad libitum.\nTumors were initiated in the in the right flank of the mice by a subcutaneous injection of 5×10^6 tumor cells suspended in 100 μl of a 1:1 mixture of Hank's solution and Matrigel (BD Biosciences, San Jose, Calif.). Each mouse received one inoculation injection. When the tumors reached an average size of 120 mm^3 (80-200 mm^3), the mice were randomly assigned to different treatment groups with 5-8 mice in each group. Lanreotide was administered to each mouse via subcutaneous injection. […]\nLocal irradiation of individual tumors was carried out as follows. Unanesthetized tumor-bearing mice were placed in lead boxes, positioned so as to have the tumors protruding through a cut-out window at the rear of each box. The radiation dose was delivered using a Philips RT-250 200 kVp X-ray unit (12.5 mA; Half Value Layer, 1.0-mm Cu) at a dose rate of 138 cGy/min. The tumors were exposed to 150-250 cGy per fraction daily for 5 consecutive days as specified in each experiment.\n(§1) Tumor volume was calculated using the formula: tumor volume (mm^3)=π/6×length×width^2. The length and width of the tumors were measured with calipers before treatment and three times a week thereafter, until the tumor volume reached at least 4 times (4×) the pre-treatment volume. The tumor volume quadrupling (4×) time was determined by a best-fit regression analysis. The tumor growth delay (TGD) time (in days) is the difference between the tumor volume quadrupling time of treated tumors compared to the tumor volume quadrupling time of untreated control tumors. Both the tumor volume quadrupling time and tumor growth delay time were calculated for each individual animal and then averaged for each group. In some experiments, a complete response of tumors was recorded if a tumor shrunk to the point that it was not palpable at the end of the experiment. Body weight was measured twice a week."}, "[2]": {"test_system": "GH3 cells", "type": "cell-based, rat", "settings": "for surviving fraction at 10 Gy: 100 nM lanreotide, plus 10 Gy radiation (radiation alone 0.0006); for cell survival rate (colony forming units): 21 days", "excerpt": "Currently, there are no human pituitary GH-secreting cell lines that can be maintained in a differentiated state in vitro for sufficient time for colony formation assessment (Danila, D. C. et al., J. Clin. Endocrinol. Metab., 2001, 86:2976-8; Danila, D. C. et al., J. Clin. Endocrinol. Metab., 2000, 85:1180-7). As such, a rat GH3 pituitary tumor cell line was purchased from ATCC. The GH3 cells were maintained in DMED/F-12 medium (Gibco BRL, Grand Island, N.Y.) supplemented with 10% fetal calf serum, 100 units/ml penicillin and 100 μg/ml streptomycin in a 37° C. humidified incubator with a mixture of 95% air and 5% CO2. All experiments were performed on exponentially growing cells with a doubling time of approximately 30 hours.\nGH3 cells were detached from the cell culture support using a 0.05% trypsin-EDTA solution. The collected cells were counted, diluted in fresh growth medium and plated in triplicate in 60 mm Petri dishes (BD Biosciences, San Jose, Calif.) at dilutions of approximately 100-100,000 cells/dish. Lanreotide (Biomeasure, Inc., Milford, Mass., USA) was added to the diluted cells at final concentrations of 1-1000 nM. The cells were irradiated with 0-10 Gy at room temperature using a ^137Cs source with a dose rate of 300 cGy/min. Following exposure to lanreotide or gamma irradiation, the media was drained from the dish, the cells were washed twice with PBS (phosphate buffered saline) solution and the plates were filled with fresh growth medium. After incubation at 37° C. for 21 days, the cells were stained with 0.25% crystal violet. Colonies containing ≧50 cells were counted under a dissecting microscope and survival curves were generated. The plating efficiency (PE) was calculated as the percentage of cells plated that grew into colonies. The surviving fraction (SF) was defined as the fraction of cells surviving, i.e. number of colonies/(number of […]×PE).\nGH3 cells were plated in 60 mm tissue culture dishes and incubated overnight prior to treatment with the somatostatin agonist analog. Lanreotide was added to the cells to a final concentration of 1-1000 nM. After a 21 day incubation period in the presence of lanreotide the cells were stained and colonies with >50 cells were counted.\nGH3 cells were plated in tissue culture dishes and allowed to incubate overnight prior to treatment. At 48, 24 or 0 hours before radiation exposure, lanreotide was added to the cells at a final concentration of 100 nM or 1000 nM. At 48, 24 or 0 hours after the addition of the lanreotide, the GH3 cells were irradiated with 0-10 Gy at room temperature with a Cs-137 gamma irradiator. Following irradiation, cells with 24-hour or 0-hour pre-exposure to lanreotide were incubated in lanreotide-containing media for an additional 24 or 48 hours, respectively. After a total of 48-hour exposure, lanreotide-containing media was removed from the plates, the cells washed twice with PBS solution and fresh growth media added to the cells. Cells that were irradiated without exposure to lanreotide were also washed twice with PBS and supplied with fresh media. The cells were incubated for 21 days for colony formation."}, "[3]": {"test_system": "GH3 cells", "experiment": "Apoptosis and cell cycle analysis by FACScan flow cytometry (propidium iodide)", "type": "cell-based, rat", "settings": "for apoptotic sub-G1 cells: 48 hours after 10 Gy radiation", "method": "Apoptosis and cell cycle distribution was analyzed using a FACScan flow cytometer (BD Biosciences, San Jose, Calif.). The level of apoptosis was quantified by measuring the number of sub-diploid (sub-G1) cells. Briefly, GH3 cells were plated in 60 mm dishes at a density of approximately 500,000 cells/dish and treated with lanreotide and gamma irradiation. Approximately 48 to 168 hours after exposure, the cells were collected and washed with cold PBS supplemented with 5 mM EDTA. Cells were re-suspended in cold PBS-EDTA solution and fixed with cold 100% ethanol. After incubation for 30 minutes at room temperature, the cells were centrifuged and the pellet of cells was treated with 100 μg/ml of RNase A in a PBS-EDTA solution for 30 minutes at room temperature. Propidium iodide (PI) was added to a final concentration of 50 μg/ml and the DNA content was analyzed with a FACScan flow cytometer (BD Biosciences, San Jose, Calif.). The percentage of cells in the apoptotic sub-G1, G1, S, and G2/M phases was calculated.\nGH3 cells were placed in 60 mm Petri dishes at a concentration of approximately 500,000 cells/dish and allowed to grow overnight. Lanreotide at 100 nM was added at 48 hours, 24 hours or immediately (0 hours) before irradiation. Cells were irradiated with 10 Gy gamma radiation at room temperature and collected 48, 72, 96 and 168 hours after exposure.\nThe DNA content of the cells was analyzed using a FACScan and the percentages of cells in the apoptotic sub-G1, G1, S and G2/M phases were calculated. […] The percentage of cells in sub-G1, G1, S and G2/M phases at 48 hours was 1.4±0.2%, 73.2±1.0%, 8.4±1.0% and 16.9±1.8%, respectively."}, "[4]": {"experiment": "Tolerability in GH3 tumor-bearing mice (body weight, appearance, activity)", "type": "in vivo, nude mice", "method": "as §1"}}, "note": "Read-outs that look alike come from different tables or passages of the source.", "data": [{"smiles": "CC(C)[C@@H]1NC(=O)[C@H](CCCCN)NC(=O)[C@@H](Cc2c[nH]c3ccccc23)NC(=O)[C@H](Cc2ccc(O)cc2)NC(=O)[C@@H](NC(=O)[C@H](N)Cc2ccc3ccccc3c2)CSSC[C@@H](C(=O)N[C@H](C(N)=O)[C@@H](C)O)NC1=O", "note": "[lanreotide, D-2-Nal-Cys-Tyr-D-Trp-Lys-Val-Cys-Thr-NH2]", "values": [{"measurement": "tumor growth delay time, pre-administration plus radiation", "setting": "[1]; 10 mg/kg lanreotide 5 days, then lanreotide plus 150 cGy daily for 5 days (radiation alone 15.5±8.8 days)", "result": "15.1 ± 8.6", "unit": "days"}, {"measurement": "once daily vs twice daily dosing in reducing tumor growth", "setting": "[1]; 2.5, 5 or 10 mg/kg s.c. qd or bid for 5 days, p=0.3-0.9", "result": "lanreotide delivered once a day was as effective as lanreotide delivered twice daily"}, {"measurement": "tumor growth 4× delay", "setting": "[1]; dose response study, 10 mg/kg s.c. daily for 5 days (optimal dose, bell-shaped curve)", "result": "13.1 ± 4.7", "unit": "days"}, {"measurement": "complete tumor regression", "setting": "[1]; irradiation and combination therapy groups, study terminated after 60 days", "result": "Two mice from the irradiation and combination therapy groups exhibited complete tumor regression"}, {"measurement": "4×TGD", "setting": "[1]; lanreotide alone 10 mg/kg daily for 10 days, p=0.06 vs. control", "result": "8.3 ± 8.3", "unit": "days"}, {"measurement": "tumor growth 4× delay", "setting": "[1]; regimen comparison, 5 mg/kg twice daily for 5 days", "result": "1.1 ± 3.1", "unit": "days"}, {"measurement": "tumor growth 4× delay", "setting": "[1]; regimen comparison, 10 mg/kg once daily for 5 days", "result": "4.9 ± 2.1", "unit": "days"}, {"measurement": "surviving fraction at 10 Gy", "setting": "[2]; 0 hour pre-exposure", "result": 0.00042}, {"measurement": "surviving fraction at 10 Gy", "setting": "[2]; 24 hours pre-exposure", "result": 0.0004}, {"measurement": "surviving fraction at 10 Gy", "setting": "[2]; 48 hours pre-exposure", "result": 0.00022}, {"measurement": "effect on radiation survival curves", "setting": "[2]; 1000 nM lanreotide for 48 hours with 0-10 Gy radiation", "result": "did not alter the shape and slopes of the radiation survival curves"}, {"measurement": "IC50", "setting": "[2]; GH3 cells, 21 day incubation in the presence of lanreotide, read-out: IC50 (50% inhibition of cell growth), colony formation", "result": 57, "unit": "nM"}, {"measurement": "cell survival rate (colony forming units)", "setting": "[2]; lanreotide 1 nM", "result": 75, "unit": "%"}, {"measurement": "cell survival rate (colony forming units)", "setting": "[2]; lanreotide 10 nM", "result": 56, "unit": "%"}, {"measurement": "cell survival rate (colony forming units)", "setting": "[2]; lanreotide 100 nM", "result": 39, "unit": "%"}, {"measurement": "cell survival rate (colony forming units)", "setting": "[2]; lanreotide 1000 nM", "result": 27, "unit": "%"}, {"measurement": "reduction of clonogenic survival compared with untreated controls", "setting": "[2]; lanreotide alone 100 nM or 1000 nM for 48 hours, without radiation", "result": "5-10%"}, {"measurement": "percentage of cells in sub-G1 phase", "setting": "[3]; 100 nM lanreotide alone (control 1.4±0.2% at 48 hours)", "result": "2.28±0.3", "unit": "%"}, {"measurement": "percentage of cells in S phase", "setting": "[3]; 100 nM lanreotide alone (control 8.4±1.0%)", "result": "7.72±0.8", "unit": "%"}, {"measurement": "percentage of cells in G2/M phase", "setting": "[3]; 100 nM lanreotide alone (control 16.9±1.8%)", "result": "16.2±0.5", "unit": "%"}, {"measurement": "percentage of cells in G1 phase", "setting": "[3]; 100 nM lanreotide alone (control 73.2±1.0%)", "result": "73.8±1.1", "unit": "%"}, {"measurement": "apoptotic sub-G1 cells", "setting": "[3]; 100 nM lanreotide 0 hours pre-exposure (radiation alone 4.9%)", "result": 13.4, "unit": "%"}, {"measurement": "apoptotic sub-G1 cells", "setting": "[3]; 100 nM lanreotide 24 hours pre-exposure (radiation alone 4.9%)", "result": 9.3, "unit": "%"}, {"measurement": "apoptotic sub-G1 cells", "setting": "[3]; 100 nM lanreotide 48 hours pre-exposure (radiation alone 4.9%)", "result": 8.6, "unit": "%"}, {"measurement": "sub-G1 cell fraction", "setting": "[3]; 168 hours after 10 Gy radiation, radiation plus 100 nM lanreotide (radiation alone 12%)", "result": "20-22%"}, {"measurement": "signs of systemic toxicity (general appearance, skin reaction, body weight, activity)", "setting": "[4]; 10 mg/kg for 10 days alone and in combination with 150 cGy external radiation", "result": "did not result in any obvious signs of systemic toxicity"}, {"measurement": "animal body weight, combination vs fractionated radiation alone", "setting": "[4]; 10 mg/kg lanreotide plus 150-250 cGy/fraction for 5 days", "result": "did not cause any further decrease in animal body weight"}, {"measurement": "general appearance and daily activity", "setting": "[4]; 2.5-50 mg/kg daily for 5 days", "result": "no notable change"}, {"measurement": "body weight compared to untreated control mice", "setting": "[4]; 2.5-50 mg/kg daily for 5 days, all doses tested", "result": "did not cause significant decrease in body weight"}]}]}
